Paper PMC9271048, “Probing strigolactone perception mechanisms with rationally designed small-molecule agonists stimulating germination of root parasitic weeds” (Nature Communications, 2022)
Where two headings read alike, the source gives them in different places.

Columns and labels:
AtD14 = molecular target: T1, AtD14 (Arabidopsis thaliana, UniProt Q9SQR3); assay: Competitive inhibition of AtD14 with YLG as substrate; type: biochemical
T1 construct: His tag; made in house; host or cells: E. coli BL21
T1 sequence (Q9SQR3 1-267): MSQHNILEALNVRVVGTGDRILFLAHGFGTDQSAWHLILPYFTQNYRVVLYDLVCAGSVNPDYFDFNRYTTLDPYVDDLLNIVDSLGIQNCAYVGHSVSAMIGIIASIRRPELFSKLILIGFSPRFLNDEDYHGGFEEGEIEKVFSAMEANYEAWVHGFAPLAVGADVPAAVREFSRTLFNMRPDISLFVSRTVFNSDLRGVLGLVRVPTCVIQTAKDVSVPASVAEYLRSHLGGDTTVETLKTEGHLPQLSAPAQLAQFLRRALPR
Protocol: (§1) The excitation and emission wavelengths of YLG are 480 and 520 nm, respectively. We used a fluorescence spectrophotometer (CARY Eclipse) to detect the fluorescence intensity change of YLG during the enzymatic hydrolysis assay process. All the testing compounds and YLG were dissolved in DMSO and prepared as stock solutions just before use. […] The changes of fluorescence at 520 nm of each well were recorded every 1 min for 30 min. Using the reaction mixture without adding enzyme and tested compounds as the background control. After subtracting the background hydrolysis, a linear fluorescence increase in 8 min was used for further inspection. The IC50 values were determined via fitting relative inhibition percentages with the varying concentrations of compounds in Microsoft Excel.

[1] = system: ShHTL7-AtMAX2 interaction; assay: Yeast two-hybrid assay ShHTL7-AtMAX2; type: cell-based, Striga hermonthica
Protocol: To construct plasmids for yeast two-hybrid assays, the CDS of ShHTL7 and AtD14 were cloned into yeast expression vector pBrigde to generate BD-ShHTL7 and BD-AtD14, and the CDS of ShMAX2, AtMAX2, SMAX1 were cloned into pGADT7 to make Gal4 DNA activation domain (AD) constructs, respectively. Primers used for yeast expression vector construction are listed in Supplementary Table 6. Yeast two-hybrid assays were performed using the Yeastmaker Yeast Transformation System 2 (Clontech). In brief, Yeast AH109 cells were co-transformed with specific bait and prey constructs and coated on selective growth medium SD/-Leu-Trp for 3 days at 30 °C, pick the positive constructs into liquid selective growth medium SD/-Leu-Trp shaking for 36 h at 30 °C. Washed yeast cells three times and diluted, made sure OD600 reached 2.5, then serial 10-fold dilutions of yeast cultures were spotted onto selective growth mediums that were supplemented with different concentrations of rac-GR24 and tested molecules, respectively. All yeast transformants were grown on a selective growth medium at 30 °C for 3 days.

ShHTL7 L161A = ShHTL7 L161A (Striga hermonthica, UniProt A0A0M3PNA2, L161A); assay: YLG competitive inhibition, ShHTL7 mutant L161A; type: biochemical
ShHTL7 L161A, sequence (A0A0M3PNA2 whole entry L161A): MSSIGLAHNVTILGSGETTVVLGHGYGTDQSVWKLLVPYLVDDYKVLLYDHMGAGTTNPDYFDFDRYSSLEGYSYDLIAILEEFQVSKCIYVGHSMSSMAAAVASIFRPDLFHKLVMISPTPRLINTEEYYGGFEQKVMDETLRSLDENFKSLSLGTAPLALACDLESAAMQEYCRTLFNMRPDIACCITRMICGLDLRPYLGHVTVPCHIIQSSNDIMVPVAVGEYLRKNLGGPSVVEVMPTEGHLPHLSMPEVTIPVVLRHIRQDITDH
Text: (§2) To clarify the dynamics of how the catalytic triad affects hydrolysis by ShHTL7, we performed MD simulations to study the differences between (R)-4a and (S)-4a (Supplementary Fig. 21). […] To further characterize our computational models, we performed mutation studies of the key residues in the active pockets that may have interactions with our molecules. Indeed, a number of the mutations of specific residues altered the IC50 values, supporting our simulated models (Supplementary Fig. 20b).
as §1
(§3) Supplementary Fig. 20. […]

ShHTL7 M219A = ShHTL7 M219A (Striga hermonthica, UniProt A0A0M3PNA2, M219A); assay: YLG competitive inhibition, ShHTL7 mutant M219A; type: biochemical
ShHTL7 M219A, sequence (A0A0M3PNA2 whole entry M219A): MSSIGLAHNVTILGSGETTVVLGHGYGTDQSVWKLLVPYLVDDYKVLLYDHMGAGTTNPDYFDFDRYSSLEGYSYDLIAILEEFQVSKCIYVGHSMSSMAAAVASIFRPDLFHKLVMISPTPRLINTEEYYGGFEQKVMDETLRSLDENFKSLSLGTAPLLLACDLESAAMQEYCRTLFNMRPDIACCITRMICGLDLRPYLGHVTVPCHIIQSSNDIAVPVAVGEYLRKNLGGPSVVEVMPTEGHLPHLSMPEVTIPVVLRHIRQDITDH
Text: as §2, §1, §3

ShHTL7 L161M = ShHTL7 L161M (Striga hermonthica, UniProt A0A0M3PNA2, L161M); assay: YLG competitive inhibition, ShHTL7 mutant L161M; type: biochemical
ShHTL7 L161M, sequence (A0A0M3PNA2 whole entry L161M): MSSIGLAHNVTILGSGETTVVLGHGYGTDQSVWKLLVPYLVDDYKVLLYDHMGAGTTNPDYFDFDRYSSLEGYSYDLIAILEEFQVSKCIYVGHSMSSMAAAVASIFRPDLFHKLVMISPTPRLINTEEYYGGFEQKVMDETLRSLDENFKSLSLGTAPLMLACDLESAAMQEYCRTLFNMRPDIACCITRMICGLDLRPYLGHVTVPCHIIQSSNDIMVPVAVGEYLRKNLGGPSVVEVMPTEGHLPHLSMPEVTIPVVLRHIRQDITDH
Text: as §2, §1, §3

ShHTL7 T142K = ShHTL7 T142K (Striga hermonthica, UniProt A0A0M3PNA2, T142K); assay: YLG competitive inhibition, ShHTL7 mutant T142K; type: biochemical
ShHTL7 T142K, sequence (A0A0M3PNA2 whole entry T142K): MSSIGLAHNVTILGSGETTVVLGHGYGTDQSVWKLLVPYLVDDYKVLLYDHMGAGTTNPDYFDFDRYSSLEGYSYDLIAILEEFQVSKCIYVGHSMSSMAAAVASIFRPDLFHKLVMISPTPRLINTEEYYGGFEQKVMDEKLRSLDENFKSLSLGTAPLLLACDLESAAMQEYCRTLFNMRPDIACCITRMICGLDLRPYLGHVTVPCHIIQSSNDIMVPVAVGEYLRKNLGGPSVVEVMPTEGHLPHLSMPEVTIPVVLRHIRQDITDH
Text: as §2, §1, §3

ShHTL7 S95C = ShHTL7 S95C (Striga hermonthica, UniProt A0A0M3PNA2, S95C); assay: YLG competitive inhibition, ShHTL7 mutant S95C; type: biochemical
ShHTL7 S95C, sequence (A0A0M3PNA2 whole entry S95C): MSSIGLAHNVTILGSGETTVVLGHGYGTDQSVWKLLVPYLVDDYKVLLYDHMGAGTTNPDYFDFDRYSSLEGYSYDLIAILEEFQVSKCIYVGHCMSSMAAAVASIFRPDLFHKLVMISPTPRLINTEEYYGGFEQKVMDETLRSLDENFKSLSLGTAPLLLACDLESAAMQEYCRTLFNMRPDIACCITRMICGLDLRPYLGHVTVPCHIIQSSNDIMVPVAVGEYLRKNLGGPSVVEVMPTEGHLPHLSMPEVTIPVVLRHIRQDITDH
Text: as §2, §1, §3

[2] = YLG as the substrate, read-out: Competitive AtD14 inhibitory activity IC50

Row | Structure (SMILES) | induction of ShHTL7-AtMAX2 interaction (Y2H) ([1]; 1 μM) | IC50 (AtD14; [2]) [µM] | induction of ShHTL7-AtMAX2 interaction (Y2H) ([1]; 200 μM) | IC50 (ShHTL7 L161A) [µM] | IC50 (ShHTL7 M219A) [µM] | IC50 (ShHTL7 L161M) [µM] | IC50 (ShHTL7 T142K) [µM] | IC50 (ShHTL7 S95C) [µM] | further results
1 | CC1=C[C@H](O/C=C2/C(=O)O[C@@H]3c4ccccc4C[C@H]23)OC1=O (racemic) [rac-GR24, reference compound] |  |  |  |  |  |  |  |  | IC50 (AtD14; source data of Fig. 4b and Supplementary Fig. 14, read-out: Competitive AtD14 inhibitory activity IC50, source data average): 6.54 µM
2 | CC1=CC(OC(=O)N2CCN(C(=O)COc3ccc(Br)cc3C)CC2)OC1=O (centres unmarked) [4a] | strongly induce the interaction | > 100 |  |  |  |  |  |  | 
3 | CC1=CC(OC(=O)N2CCN(C(=O)COc3ccc(Br)cc3C)CC2)CC1=O (centres unmarked) [4g] |  |  | only weak ligand-induced interactions |  |  |  |  |  | 
4 | CC1=CC(CC(=O)N2CCN(C(=O)COc3ccc(Br)cc3C)CC2)OC1=O (centres unmarked) [4i] |  |  | almost no ligand-induced interactions were observed |  |  |  |  |  | 
5 | CC1=C[C@@H](OC(=O)N2CCN(C(=O)COc3ccc(Br)cc3C)CC2)OC1=O [(R)-4a] |  | > 100 | did induce the interaction | 100 | > 100 | 34.3 | 4.13 | 43.7 | induction of ShHTL7-AtMAX2 interaction (Y2H) ([1]; 1 and 5 μM): no ShHTL7-SMAX1 or ShHTL7-AtMAX2 interactions were detected
6 | CC1=C[C@H](OC(=O)N2CCN(C(=O)COc3ccc(Br)cc3C)CC2)OC1=O [(S)-4a] | strongly induce the interaction | > 100 |  | 0.155 | 6.53 | 0.666 | 0.203 | 0.293 | 
